Assay results: patent publication US12453712B2, “Antitumoral use of cabazitaxel” (Sanofi Mature IP, priority 2009, dated 2025)
Like-named read-outs stand apart in the source and are kept apart here.

What was measured:
[1] = Same clinical study: adverse reactions, hematologic abnormalities, treatment discontinuation, delays and dose reductions; assay type: in vivo, human
Description: A clinical study was performed wherein patients received either treatment with cabazitaxel or the reference treatment based on mitoxantrone each combined with prednisone or prednisolone.
More specifically, patients over 18 years of age with metastatic castration resistant metastatic prostate cancer either measurable by RECIST criteria or non-measurable disease with rising PSA levels or appearance of new lesions, ECOG (Eastern Cooperative Oncology Group) performance stage 0-2, and adequate organ function (patients had to have neutrophils >1,500 cells/mm^3, platelets >100,000 cells/mm^3, hemoglobin >10 g/dL, creatinine <1.5×upper limit of normal (ULN), total bilirubin <1×ULN, AST <1.5×ULN, and ALT <1.5×ULN) who had had prior hormone therapy, chemotherapy, and radiotherapy, but had progressive during or after docetaxel treatment (cumulative dose ≥225 mg/m^2) were randomized to 10 mg/day of prednisone with either mitoxantrone 12 mg/m^2 or cabazitaxel 25 mg/m^2, both administered every 3 weeks.
Patients with a history of congestive heart failure, or myocardial infarction within the last 6 months, or patients with uncontrolled cardiac arrhythmias, angina pectoris, and/or hypertension were not included in the study.
720 patients were planned to be included in the clinical study: 360 in each cabazitaxel+prednisone and mitoxantrone+prednisone group. Seven hundred and fifty-five patients (755) (median age 68; 84% white) were actually enrolled, 378 in the cabazitaxel and prednisone/prednisolone group and 377 in the mitoxantrone and prednisone/prednisolone group. The maximal number of treatment cycles was 10 for cabazitaxel and 10 for mitoxantrone. The median number of treatment cycles was 6 for cabazitaxel and 4 for mitoxantrone. The median prior dose of docetaxel treatment was 576 mg/m^2 for the cabazitaxel group and 529 mg/m^2 for the mitoxantrone group. Median follow-up was 12.8 months.

breast cancer = details: phase II, cited from earlier work
CYP3A = assay: Metabolism of cabazitaxel
From the text: Concomitant administration of strong CYP3A inhibitors (for example, ketoconazole, itraconazole, clarithromycin, atazanavir, indinavir, nefazodone, nelfinavir, ritonavir, saquinavir, telithromycin, voriconazole) may increase cabazitaxel concentrations. Therefore co-administration of cabazitaxel with strong CYP3A inhibitors should be avoided. Caution should be exercised with concomitant use of moderate CYP3A inhibitors. One aspect of the invention is a method of treating a patient for prostate cancer comprising determining whether the patient is undergoing treatment with a CYP3A inhibitor, discontinuing treatment with a CYP3A inhibitor, and then administering cabazitaxel to the patient.

[2] = Population pharmacokinetic analysis in patients; assay type: in vivo, human; details: for Cmax: CV 107%; for half-life: 1-hour intravenous infusion, 3-compartment PK model
Description: A population pharmacokinetic analysis was conducted in 170 patients with solid tumors at doses ranging from 10 to 30 mg/m^2 weekly or every 3 weeks.

[3] = human, in vivo, listed as Cabazitaxel
[4] = percent of patients, laboratory values, cabazitaxel: n = 369, mitoxantrone: n = 370

## CO[C@H]1C(=O)[C@]2(C)[C@@H](OC)C[C@H]3OC[C@@]3(OC(C)=O)[C@H]2[C@H](OC(=O)c2ccccc2)[C@]2(O)C[C@H](OC(=O)[C@H](O)[C@@H](NC(=O)OC(C)(C)C)c3ccccc3)C(C)=C1C2(C)C [cabazitaxel, 4α-acetoxy-2α-benzoyloxy-5β,20-epoxy-1β-hydroxy-7β,10β-dimethoxy-9-oxo-11-taxen-13α-yl (2R,3S)-3-tert-butoxycarbonyl-amino-2-hydroxy-3-phenylpropionate]
[1]; Example 1
  Rates of febrile neutropenia: 7.5%
[1]; human, in vivo
  Dose reductions, cycles (%): 9.8%
  Dose reductions, no. of cycles: 221
  Treatment delays >9 days, cycles (%): 2.3%
  Treatment delays >9 days, no. of cycles: 51
  Treatment delays ≤9 days, cycles (%): 7%
  Treatment delays ≤9 days, no. of cycles: 157
[1]; [3]
  Dose reductions, cycles (%): (9.8) %
  Treatment delays >9 days, cycles (%): (2.3) %
  Treatment delays ≤9 days, cycles (%): (7.0) %
[1]; intention-to-treat
  Discontinuation of study treatment for adverse event, (%): (17.7) %
[1]; intention-to-treat, N = 377 mitoxantrone, N = 378 cabazitaxel
  Discontinuation of study treatment for adverse event, no.: 67
[1]; patients who received cabazitaxel
  most common (≥5%) grade 3-4 adverse reactions: neutropenia, leukopenia, anemia, febrile neutropenia, diarrhea, fatigue, and asthenia
[1]; percent of patients of n = 371
  Abdominal Pain Grade 1-4, (%): (17%)
  Abdominal Pain Grade 3-4, (%): (2%)
  Alopecia Grade 1-4, (%): (10%)
  Anorexia Grade 1-4, (%): (16%)
  Anorexia Grade 3-4, (%): (<1%)
  Arrhythmia Grade 1-4, (%): (5%)
  Arrhythmia Grade 3-4, (%): (1%)
  Arthralgia Grade 1-4, (%): (11%)
  Arthralgia Grade 3-4, (%): (1%)
  Asthenia Grade 1-4, (%): (20%)
  Asthenia Grade 3-4, (%): (5%)
  Back Pain Grade 1-4, (%): (16%)
  Back Pain Grade 3-4, (%): (4%)
  Bone Pain Grade 1-4, (%): (5%)
  Bone Pain Grade 3-4, (%): (<1%)
  Constipation Grade 1-4, (%): (20%)
  Constipation Grade 3-4, (%): (1%)
  Cough Grade 1-4, (%): (11%)
  Dehydration Grade 1-4, (%): (5%)
  Dehydration Grade 3-4, (%): (2%)
  Diarrhea Grade 1-4, (%): (47%)
  Diarrhea Grade 3-4, (%): (6%)
  Dizziness Grade 1-4, (%): (8%)
  Dysgeusia Grade 1-4, (%): (11%)
  Dyspepsia Grade 1-4, (%): (10%)
  Dyspnea Grade 1-4, (%): (12%)
  Dyspnea Grade 3-4, (%): (1%)
  Dysuria Grade 1-4, (%): (7%)
  Fatigue Grade 1-4, (%): (37%)
  Fatigue Grade 3-4, (%): (5%)
  Febrile Neutropenia Grade 1-4, (%): (7%)
  Febrile Neutropenia Grade 3-4, (%): (7%)
  Headache Grade 1-4, (%): (8%)
  Hematuria Grade 1-4, (%): (17%)
  Hematuria Grade 3-4, (%): (2%)
  Hypotension Grade 1-4, (%): (5%)
  Hypotension Grade 3-4, (%): (<1%)
  Mucosal Inflammation Grade 1-4, (%): (6%)
  Mucosal Inflammation Grade 3-4, (%): (<1%)
  Muscle Spasms Grade 1-4, (%): (7%)
  Musculoskeletal Pain Grade 1-4, (%): (5%)
  Musculoskeletal Pain Grade 3-4, (%): (<1%)
  Nausea Grade 1-4, (%): (34%)
  Nausea Grade 3-4, (%): (2%)
  Pain Grade 1-4, (%): (5%)
  Pain Grade 3-4, (%): (1%)
  Pain in Extremity Grade 1-4, (%): (8%)
  Pain in Extremity Grade 3-4, (%): (2%)
  Peripheral Edema Grade 1-4, (%): (9%)
  Peripheral Edema Grade 3-4, (%): (<1%)
  Peripheral Neuropathy Grade 1-4, (%): (13%)
  Peripheral Neuropathy Grade 3-4, (%): (<1%)
  Pneumonia Grade 1-4, (%): (3%)
  Pneumonia Grade 3-4, (%): (2%)
  Pyrexia Grade 1-4, (%): (12%)
  Pyrexia Grade 3-4, (%): (1%)
  Urinary Tract Infection Grade 1-4, (%): (8%)
  Urinary Tract Infection Grade 3-4, (%): (2%)
  Vomiting Grade 1-4, (%): (22%)
  Vomiting Grade 3-4, (%): (2%)
  Weight Decreased Grade 1-4, (%): (9%)
[1]; [4]
  Anemia Grade 1-4, (%): (98%)
  Anemia Grade 3-4, (%): (11%)
  Leukopenia Grade 1-4, (%): (96%)
  Leukopenia Grade 3-4, (%): (69%)
  Neutropenia Grade 1-4, (%): (94%)
  Neutropenia Grade 3-4, (%): 81.7%
  Thrombocytopenia Grade 1-4, (%): (48%)
  Thrombocytopenia Grade 3-4, (%): (4%)
[1]; percent of patients, laboratory values, cabazitaxel: n = 369, mitoxantrone: n = 370, listed as Cabazitaxel
  Neutropenia Grade 3-4, (%): (82%)
Breast cancer; prior taxanes and anthracyclines as adjuvant
  response level: 14.6%
Breast cancer; second-line treatment
  response level: 9.5%
CYP3A
  metabolic pathway: primarily metabolized through CYP3A
[2]; 10 to 30 mg/m^2, patients with advanced solid tumors
  dose proportionality: No major deviation from the dose proportionality
[2]; at steady state, for a patient with a median BSA of 1.84 m^2
  volume of distribution (Vss): 2,643 L/m^2
[2]; for a patient with a median BSA of 1.84 m^2
  plasma clearance: 26.4 L/h/m^2
[2]; human, plasma, intravenous, 25 mg/m^2, Cmax reached at the end of the 1-hour infusion
  Tmax: 1 h
[2]; human, plasma, intravenous, 25 mg/m^2, amount administered to provide this Cmax, read-out: Cmax
  Cmax: ~226 ng/mL
[2]; human, plasma, intravenous, at steady state, read-out: volume of distribution (Vss)
  Vd: 4860 L
[2]; human, plasma, iv, read-out: α-half-life
  half-life: 0.0667 h
[2]; human, plasma, iv, read-out: β-half-life (converted)
  half-life: 2 h
[2]; human, plasma, iv, read-out: γ-half-life (converted)
  half-life: 95 h
[2]; male, human, plasma, 25 mg/m2, intravenous 25 mg/m^2 every 3 weeks, patients with metastatic prostate cancer, read-out: mean Cmax
  Cmax: 226 ng/mL
[2]; male, human, plasma, intravenous, patients with metastatic prostate cancer, CV 39%
  clearance: 808 mL/min
[2]; male, human, plasma, iv, 25 mg/m2, intravenous 25 mg/m^2 every 3 weeks, patients with metastatic prostate cancer, CV 34%
  AUC: 991 ng·h/mL
[2]; prednisone or prednisolone 10 mg daily
  effect of prednisone or prednisolone on the pharmacokinetics of cabazitaxel: does not affect
